Reference: ChEMBL document CHEMBL4396919, “Permeability of Cyclic Peptide Macrocycles and Cyclotides and Their Potential as Therapeutics” (ACS Med Chem Lett, 2019)
*1 amine or outer side, *2 acyl side, *3 side chain or, on linkers, in order; H or OH if unused. Where a SMILES comes first, the peptide text is derived from it. [ ]: non-standard residue; d: D form. Ile(ψThz) = CC[C@H](C)[C@H](N[*:1])c1nc(C(=O)[*:2])cs1; NMeF = CN[C@@H](Cc1ccccc1)C(=O)O; Tle = CC(C)(C)[C@H](N)C(=O)O

How the values were obtained:
in vivo = conditions: Wistar, rat, po, 10 mg/kg
in vitro = conditions: dog, MDCK
Description: Permeability in RRCK cells

bioavailability at 8 h (in vivo) [%] | Papp (in vitro) [×10⁻⁶ cm/s] | SMILES
21 | – | CC[C@H](C)[C@@H]1NC(=O)[C@@H]2CCCN2C(=O)[C@H](Cc2ccccc2)N(C)C(=O)[C@H](C(C)(C)C)NC(=O)c2csc(n2)[C@H]([C@@H](C)CC)NC(=O)[C@@H]2CCCN2C1=O (cyclo(IP[Ile(ψThz)][Tle][NMeF]P))
7 | 0.7 | CC[C@H](C)[C@@H]1NC(=O)[C@@H]2CCCN2C(=O)[C@H](Cc2ccccc2)NC(=O)[C@H](C)NC(=O)c2csc(n2)[C@H]([C@@H](C)CC)NC(=O)[C@@H]2CCCN2C1=O (cyclo(AFPIP[Ile(ψThz)]))
